According to the Kinase Knowledgebase extract (Sharma et al. 2016):
One block for each molecule: values may come before it.

Key:
[1] = target: EGFR (human) (UniProt P00533)
[2] = target: EGFR (human) (UniProt P00533); details: hn5
[3] = target: EGFR (human) (UniProt P00533); remark: listed apart in the source
[4] = target: EGFR (human) (UniProt P00533); details: a431
[5] = target: EGFR (UniProt P00533)
[6] = target: MAPK14 (UniProt Q16539); assay: CSBP binding - Inhibition of RBL-1 5 Lipoxygenase Enzyme Assay
[7] = target: MAPK14 (UniProt Q16539); assay: CSBP binding - Inhibition of Prostaglandin H Synthase Type-1 Enzyme Assay
[8] = target: EGFR (human) (UniProt P00533); remark: listed apart in the source
[9] = target: CDK2 (UniProt P24941); assay: Enzyme Assay
[10] = target: CDK2 (UniProt P24941); assay: Enzyme Assay; remark: listed apart in the source
[11] = target: EGFR (UniProt P00533); remark: listed apart in the source
[12] = target: MAPK14 (UniProt Q16539); assay: MAPK Kinase Inhibition
[13] = target: EGFR (UniProt P00533); remark: listed apart in the source
[14] = target: MAPK14 (UniProt Q16539); assay: Inhibition of MAPK14 Kinase Activity
[15] = target: MAPK14 (human) (UniProt Q16539); assay: Inhibition of MAPK14 Kinase Activity
[16] = target: MAPK14 (human) (UniProt Q16539); assay: Inhibition of MAPK14 Kinase Activity; remark: listed apart in the source
[17] = target: EGFR (human) (UniProt P00533); remark: listed apart in the source
[18] = target: EGFR (human) (UniProt P00533); details: hn5; remark: listed apart in the source
[19] = target: EGFR (UniProt P00533); remark: listed apart in the source
[20] = target: MAPK14 (UniProt Q16539)
[21] = target: MAPK14 (human) (UniProt Q16539); assay: p38-alpha Kinase Inhibition; details: for activity: concentration not given here
[22] = target: ROCK2 (rat) (UniProt Q62868); assay: ROCK-II Kinase Inhibition; details: concentration not given here
[23] = target: PIK3CA (human) (UniProt P42336); assay: Inhibition of PIK3CA Kinase Activity (FP Assay)
[24] = target: PIK3CG (human) (UniProt P48736); assay: Inhibition of PIK3CG Kinase Activity
[25] = target: EGFR (human) (UniProt P00533); details: kb
[26] = target: MAPK14 (UniProt Q16539); assay: Inhibition of MAPK14 Kinase Activity (Binding Assay)
[27] = target: MAPK14 (UniProt Q16539); assay: Inhibition of MAPK14 Kinase Activity (Spectrophometric Assay); details: concentration not given here
[28] = target: MAPK14 (UniProt Q16539); assay: Inhibition of TNF-alpha Production
[29] = target: EGFR (human) (UniProt P00533); details: hn5; remark: listed apart in the source
[30] = target: EGFR (human) (UniProt P00533); remark: listed apart in the source

Chain of MAPK14 (Q16539 whole entry, looked up): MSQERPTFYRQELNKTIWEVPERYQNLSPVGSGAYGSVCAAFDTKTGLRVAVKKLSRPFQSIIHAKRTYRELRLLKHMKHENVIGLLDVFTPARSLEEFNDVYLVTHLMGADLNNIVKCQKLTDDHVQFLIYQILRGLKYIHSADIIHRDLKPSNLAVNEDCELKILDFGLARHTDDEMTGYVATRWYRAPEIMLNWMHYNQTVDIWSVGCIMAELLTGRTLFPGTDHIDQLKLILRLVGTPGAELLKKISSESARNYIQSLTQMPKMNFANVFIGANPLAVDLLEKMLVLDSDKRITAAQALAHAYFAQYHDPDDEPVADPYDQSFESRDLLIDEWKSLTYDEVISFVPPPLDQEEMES
Chain of MAPK14 (human) (Q16539 whole entry, looked up): as above
Chain of EGFR (human) (P00533 whole entry, looked up): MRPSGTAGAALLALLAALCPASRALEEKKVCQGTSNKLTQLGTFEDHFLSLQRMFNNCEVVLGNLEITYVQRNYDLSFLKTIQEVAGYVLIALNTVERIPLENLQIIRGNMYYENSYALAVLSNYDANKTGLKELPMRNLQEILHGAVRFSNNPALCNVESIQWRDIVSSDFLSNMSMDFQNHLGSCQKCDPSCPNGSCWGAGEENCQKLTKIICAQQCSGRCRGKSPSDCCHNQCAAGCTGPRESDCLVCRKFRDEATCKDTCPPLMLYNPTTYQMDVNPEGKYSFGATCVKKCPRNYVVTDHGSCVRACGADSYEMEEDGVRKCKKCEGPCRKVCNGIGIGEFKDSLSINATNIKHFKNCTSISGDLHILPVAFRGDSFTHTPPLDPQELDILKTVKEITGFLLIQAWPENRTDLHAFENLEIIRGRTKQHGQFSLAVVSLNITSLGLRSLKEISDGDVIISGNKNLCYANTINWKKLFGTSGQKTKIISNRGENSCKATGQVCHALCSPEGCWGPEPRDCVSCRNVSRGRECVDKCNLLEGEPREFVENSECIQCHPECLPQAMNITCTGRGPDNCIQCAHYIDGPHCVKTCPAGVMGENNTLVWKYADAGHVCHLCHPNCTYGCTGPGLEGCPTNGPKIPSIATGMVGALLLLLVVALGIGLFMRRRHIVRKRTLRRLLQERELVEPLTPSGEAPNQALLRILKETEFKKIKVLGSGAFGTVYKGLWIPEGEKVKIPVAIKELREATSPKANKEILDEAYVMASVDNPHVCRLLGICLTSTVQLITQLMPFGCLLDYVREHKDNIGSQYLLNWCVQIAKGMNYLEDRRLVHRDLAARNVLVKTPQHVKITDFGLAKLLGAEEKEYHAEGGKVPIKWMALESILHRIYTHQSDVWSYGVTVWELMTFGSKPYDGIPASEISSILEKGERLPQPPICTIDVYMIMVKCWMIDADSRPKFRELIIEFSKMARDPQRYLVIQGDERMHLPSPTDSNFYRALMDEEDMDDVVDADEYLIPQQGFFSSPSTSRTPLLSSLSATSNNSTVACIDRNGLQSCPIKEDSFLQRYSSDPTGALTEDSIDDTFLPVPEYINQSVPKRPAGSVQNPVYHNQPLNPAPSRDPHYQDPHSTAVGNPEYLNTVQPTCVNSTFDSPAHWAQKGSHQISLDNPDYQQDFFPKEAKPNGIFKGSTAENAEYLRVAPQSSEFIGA
Chain of EGFR (P00533 whole entry, looked up): as above
Chain of ROCK2 (rat) (Q62868 whole entry, looked up): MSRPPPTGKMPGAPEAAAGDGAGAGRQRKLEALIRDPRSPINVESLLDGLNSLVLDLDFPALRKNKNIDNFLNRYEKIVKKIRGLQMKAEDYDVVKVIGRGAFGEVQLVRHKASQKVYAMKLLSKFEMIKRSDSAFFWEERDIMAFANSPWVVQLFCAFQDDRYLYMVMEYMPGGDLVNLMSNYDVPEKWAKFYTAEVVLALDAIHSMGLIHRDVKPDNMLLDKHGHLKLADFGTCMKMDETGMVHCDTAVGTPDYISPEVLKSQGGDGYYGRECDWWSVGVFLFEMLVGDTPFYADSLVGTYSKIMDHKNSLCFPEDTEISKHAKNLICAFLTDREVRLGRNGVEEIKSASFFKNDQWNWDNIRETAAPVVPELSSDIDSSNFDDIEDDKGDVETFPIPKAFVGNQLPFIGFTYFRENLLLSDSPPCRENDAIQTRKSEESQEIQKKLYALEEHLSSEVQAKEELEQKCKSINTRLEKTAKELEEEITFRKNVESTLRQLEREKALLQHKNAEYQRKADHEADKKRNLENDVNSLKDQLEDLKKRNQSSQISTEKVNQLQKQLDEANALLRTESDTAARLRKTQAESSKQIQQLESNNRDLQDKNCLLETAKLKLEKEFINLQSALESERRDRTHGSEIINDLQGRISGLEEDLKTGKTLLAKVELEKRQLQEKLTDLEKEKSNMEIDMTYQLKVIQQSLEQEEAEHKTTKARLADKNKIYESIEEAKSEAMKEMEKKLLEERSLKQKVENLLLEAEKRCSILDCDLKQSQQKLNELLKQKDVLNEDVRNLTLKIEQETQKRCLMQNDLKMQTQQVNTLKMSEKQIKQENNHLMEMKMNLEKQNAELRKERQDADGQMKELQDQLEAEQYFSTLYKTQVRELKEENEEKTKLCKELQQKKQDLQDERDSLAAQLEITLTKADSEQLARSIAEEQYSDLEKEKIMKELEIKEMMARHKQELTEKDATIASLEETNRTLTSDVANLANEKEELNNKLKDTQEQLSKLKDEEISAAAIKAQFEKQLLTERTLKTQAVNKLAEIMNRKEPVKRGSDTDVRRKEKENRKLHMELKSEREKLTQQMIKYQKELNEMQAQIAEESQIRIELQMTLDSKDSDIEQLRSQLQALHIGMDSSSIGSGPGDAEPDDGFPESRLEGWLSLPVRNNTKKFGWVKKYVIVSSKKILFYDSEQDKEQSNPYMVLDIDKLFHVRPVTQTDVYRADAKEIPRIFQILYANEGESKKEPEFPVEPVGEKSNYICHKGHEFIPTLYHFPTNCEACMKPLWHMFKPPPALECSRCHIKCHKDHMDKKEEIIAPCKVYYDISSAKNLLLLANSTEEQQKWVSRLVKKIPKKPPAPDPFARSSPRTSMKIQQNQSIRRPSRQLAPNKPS

IC50 [3]: > 100000 nM
SMILES: Clc1cccc(Nc2cncc(-c3cncc(NCCCN4CCCCC4)c3)n2)c1

IC50 [6]: > 100000 nM
IC50 [7]: > 100000 nM
SMILES: Clc1ccc(-c2ncn(CCCN3CCOCC3)c2-c2ccncc2)cc1Cl

IC50 [8]: 1000 nM
SMILES: N#Cc1cnc2cc3c(cc2c1Nc1ccc(F)c(Cl)c1)N(C(=O)/C=C/CCl)CCO3

Ki [9]: 220 nM
Ki [10]: 34 nM
SMILES: CC(=O)NCc1ccc(Nc2nccc(-c3sc(=O)n(C)c3C)n2)cc1

IC50 [13]: > 10000 nM
IC50 [14]: > 10000 nM
IC50 [10]: 1700 nM
SMILES: CCS(=O)(=O)c1ccc(OC)c(Nc2ncc(-c3cccc(-c4ccccn4)c3)o2)c1

IC50 [15]: 2 nM
IC50 [16]: 2 nM
SMILES: CONC(=O)c1ccc(C)c(Nc2nc(NCC3CCCC(CN)C3)nc(NC3CCCCC3)n2)c1 (stereo not given)

IC50 [17]: < 100 nM
IC50 [18]: 80 nM
SMILES: CS(=O)(=O)CCNCc1nc(-c2ccc3ncnc(Nc4ccc(OCc5cccc(F)c5)c(Cl)c4)c3c2)cs1

IC50 [8]: 1000 nM
SMILES: N#Cc1cnc2cc3c(cc2c1Nc1ccc(F)c(Cl)c1)N(C(=O)/C=C/CBr)CCO3

IC50 [20]: < 50000 nM
SMILES: COCC(=O)NCCn1cnc(-c2ccc(F)cc2)c1-c1ccnc(OCCC2CCCCC2)n1

IC50 [21]: 12000 nM
activity [21]: 56%
activity [22]: 96%
SMILES: NC(=O)c1ccc(-c2nc(-c3ccc4c(c3)OCCO4)c(-c3ccccn3)[nH]2)cc1

IC50 [12]: 7100 nM
SMILES: CC(C)(C)NC(=O)Nc1nc2nc(N)ncc2cc1-c1c(Cl)cccc1Cl

IC50 [25]: 17 nM
SMILES: COc1cc2ncnc(Nc3cccc(Cl)c3F)c2cc1OC1CCN(CC(=O)NCCN2CCCC2)CC1

activity [21]: 86%
activity [22]: 96%
SMILES: COc1cc(OC)c(/C=C2/C(=O)Nc3ccccc32)c(OC)c1

IC50 [14]: 0.4 nM
IC50 [28]: 24 nM
SMILES: CN1CC2CCC1CC2Nc1cc2c(ccc(=O)n2-c2c(Cl)cccc2Cl)c(-c2ccccc2Cl)n1 (stereo not given)

Ki [9]: 42 nM
Ki [10]: 39 nM
SMILES: Cc1c(-c2ccnc(Nc3cccc(CCNS(C)(=O)=O)c3)n2)sc(=O)n1C

IC50 [30]: 4600 nM
SMILES: COc1cc2c(cc1OC)Oc1ncnc(Oc3cccc(Br)c3)c1N(C)C2

Continued, molecule first:

SMILES: Cn1ccnc1S(=O)(=O)CCNCc1ccc(-c2ccc3ncnc(Nc4ccc(OCc5cccc(F)c5)c(Cl)c4)c3c2)o1
IC50 [1]: 17 nM
IC50 [2]: 500 nM

SMILES: COc1ccc(-c2[nH]nc3c2C(=O)c2c(NC(=O)Nc4ccc(O)cc4)cccc2-3)cc1
GI50 [4]: > 10000 nM

SMILES: C/C(O)=C(\C#N)C(=O)Nc1cc(Br)ccc1Br
IC50 [5]: > 278000 nM
Ki [5]: 166000 nM

SMILES: CN1CCC(Oc2cccc3ncnc(Nc4ccc(OCc5ccccn5)c(Cl)c4)c23)CC1
IC50 [11]: 110 nM

SMILES: COc1cc(OC)cc(-c2cc3cnc(N)nc3nc2NC(=O)NC(C)(C)C)c1
IC50 [12]: > 50000 nM

SMILES: COC1=CC(=O)C(Nc2ncnc3cc(OCC4CCN(C)CC4)c(OC)cc23)=CC1=O
IC50 [19]: 2200 to 200000 nM

SMILES: O=S(=O)(CCNCc1ccc(-c2ccc3ncnc(Nc4ccc(OCc5cccc(F)c5)c(Cl)c4)c3c2)o1)c1ccccn1
IC50 [1]: 19 nM
IC50 [2]: 1550 nM

SMILES: COC[C@H]1OC(=O)/C(=C/N(C)CCCN(C)C)C2=C(O)C(=O)C3=C([C@H](OC(C)=O)C[C@@]4(C)C3CC[C@@H]4O)[C@]21C (stereo not given in full)
IC50 [23]: 6.4 nM
IC50 [24]: 8 nM

SMILES: Fc1ccc(-c2nc[nH]c2-c2ccncc2)cc1
IC50 [6]: > 100000 nM
IC50 [7]: > 100000 nM

SMILES: CC12CC(C(=O)O)CC(C)(C1)C(=O)N(Cc1cccc(-n3nc(C(C)(C)C)cc3NC(=O)Nc3ccc(Cl)cc3)c1)C2=O (stereo not given)
IC50 [26]: 10000 nM
inhibition [27]: 70%

SMILES: CS(=O)(=O)CCNCc1cc(-c2cc3ncnc(Nc4ccc(OCc5cccc(F)c5)c(Cl)c4)c3s2)cs1
IC50 [29]: 100 nM

SMILES: Cc1cc(C)c(C)c(-c2cc3cnc(N)nc3nc2NC(=O)NC(C)(C)C)c1C
IC50 [12]: > 50000 nM
